In a melting point compilation (Tetko et al.):

Row | melting point | SMILES
1 | 130 to 132 °C | O=C(O)CCCOc1ccc(Br)cc1
2 | 214 to 216 °C | O=C(O)c1csc(-c2cccc([N+](=O)[O-])c2)n1
3 | 175 to 190 °C | Cc1ccc(S(N)(=O)=O)cc1C(=O)O
4 | 269 to 271 °C | NC(=O)c1cc(C(=O)O)nn1-c1ccccc1
5 | 87 to 91 °C | COc1ccc(F)cc1C(=O)O
6 | 195 to 197 °C | Cc1ccc(-c2nnc(S)o2)cc1C
7 | 162 to 164 °C | O=C(O)c1nc(C2CC2)n(-c2ccccc2Cl)n1
8 | 169 to 171 °C | Cc1cc(Br)oc1C(=O)O
9 | 71 to 73 °C | COC(=O)c1ccc2c(c1)CCCN2
10 | 204 to 206 °C | Cc1cc(NC(=O)CSCC(N)C(=O)O)no1 (stereo unspecified)
11 | 67 to 69 °C | CCC(Cc1ccccc1Br)C(=O)O (stereo unspecified)
12 | 169 to 171 °C | O=C(O)C(=O)Cc1ccc(Cl)c(Cl)c1
13 | 237 to 239 °C | O=C(O)c1ccncc1Br
14 | 116 to 118 °C | COc1ccc(CC(=O)O)cc1S(=O)(=O)N1CCOCC1
15 | 169 to 171 °C | O=C(O)c1cc2ccccc2nc1N1CCCC1
16 | 261 to 263 °C | CC1=NN(c2ccc(C(=O)O)cc2)CC1
17 | 79 to 81 °C | CCOC(=O)c1ccc2c(c1)CCCN2
18 | 222 to 224 °C | COc1ccc(/C=C/C(=O)O)cc1F
19 | 218 to 220 °C | Cc1cc2oc(=O)cc(CCl)c2cc1Cl
20 | 207 to 209 °C | O=C(O)C1CCCN(S(=O)(=O)c2ccc(Br)cc2)C1 (stereo unspecified)
21 | 157 to 159 °C | Cc1cc(C)c(NC(=O)C(C)Cl)c(Cl)c1 (stereo unspecified)
22 | 139 to 141 °C | CC(C)Sc1ccc(C(=O)O)cc1
23 | 34 to 36 °C | Cc1ccc(Br)c2cccnc12
24 | 158 to 160 °C | COc1ccc(C(=O)CSc2nc(C)n[nH]2)cc1Br
25 | 132 to 134 °C | O=C(O)c1ccc(Oc2cccc(Cl)c2)cc1
26 | 266 to 268 °C | O=C(O)/C=C/C1=C(Cl)c2ccccc2S1(=O)=O

Row | melting point | SMILES
27 | 139 to 141 °C | Cc1cc(Br)cc2cc(C#N)oc12
28 | 180 to 184 °C | Cc1ccc2c(c1)C(=O)C(=O)N2
29 | 167 to 169 °C | Cc1nn(-c2ncc(C(F)(F)F)cc2Cl)c(C(F)(F)F)c1C(=O)O
30 | 126 to 128 °C | CN(C)C(=O)c1cccc(O)c1
31 | 125 to 127 °C | Cc1cc(Br)ccc1SCC(=O)O
32 | 109 to 111 °C | COc1ccc(-c2nc(CC(=O)O)cs2)cc1
33 | 254 to 256 °C | O=C(O)c1ccc2ncc(I)n2c1
34 | 195 to 197 °C | COc1cc(OCC(=O)O)ccc1[N+](=O)[O-]
35 | 168 to 170 °C | O=C(O)c1ccc(OCc2ccccc2)nc1
36 | 68 to 70 °C | CC=Cc1ccc(OCC(=O)OC)c(OC)c1
37 | 135 to 137 °C | Cc1noc(C)c1S(=O)(=O)NC(C)C(=O)O (stereo unspecified)
38 | 139 to 141 °C | Cc1ccc(N)cc1-n1nnnc1C
39 | 184 to 186 °C | CC(Nc1ncc(C(=O)O)cc1Cl)c1cccnc1 (stereo unspecified)
40 | 144 to 146 °C | CCS(=O)(=O)c1ccc(Cl)c(C(=O)O)c1
41 | 49 to 51 °C | COC(=O)c1sccc1O
42 | 253 to 255 °C | CNC(=O)c1cncc(C=CC(=O)O)c1
43 | 110 to 112 °C | COc1ccc(CC(=O)O)cc1F
44 | 221 to 223 °C | Cc1c(Br)ccc(C(=O)O)c1N
45 | 176 to 178 °C | O=C(O)Cn1nc(-c2cccs2)oc1=O
46 | 209 to 211 °C | Cc1ncc(C(=O)O)s1
47 | 179 to 181 °C | Cc1cc(C(=O)O)nn1-c1ccccc1Cl
48 | 61 to 63 °C | CC(CC(=O)O)c1ccccc1Br (stereo unspecified)
49 | 67 to 69 °C | Cc1nn(CCO)c(C)c1C=O
50 | 236 to 238 °C | NNC(=O)Nc1ccc(Br)cc1
51 | 229 to 231 °C | CC(NC(=O)c1ccc2[nH]ncc2c1)C(=O)O (stereo unspecified)
52 | 101 to 103 °C | COc1ccc(Cl)cc1NC(=O)CCl

The remaining lines, values behind:

Row | SMILES | melting point
53 | COCCc1ccc(S(=O)(=O)Cl)cc1 | 40 to 42 °C
54 | CC(=O)c1ccc(N2CCCS2(=O)=O)cc1 | 137 to 139 °C
55 | Cc1n[nH]c(=O)c2noc(C)c12 | 213 to 215 °C
56 | O=C(CCl)/N=c1\sccn1Cc1ccccc1Cl | 82 to 84 °C
57 | CNCc1nc2ccccc2s1 | 30 to 34 °C
58 | Cc1occc1-c1nnc(S)n1Cc1ccccc1 | 134 to 136 °C
59 | Cc1c[nH]c(=O)n1-c1cccc(C#N)c1 | 189 to 191 °C
60 | NCCCS(=O)(=O)Cc1ccccc1 | 63 to 65 °C
61 | O=C1NC2(CCCCC2)C(=O)N1Cc1ccccc1 | 151 to 153 °C
62 | Cc1cc(-c2csc(N)n2)c(F)cc1F | 219 to 221 °C
63 | CCc1cc(N)c2ccccc2n1 | 152 to 154 °C
64 | NC(=O)CCNC(=O)c1ccccc1N | 197 to 199 °C
65 | NC(=O)C(F)(F)c1ccccc1 | 116 to 118 °C
66 | NNC(=O)c1ccccn1 | 95 to 100 °C
67 | O=Cc1csc(-c2ccco2)n1 | 90 to 92 °C
68 | Cc1nc(Cl)c2c3c(sc2n1)CCCCC3 | 43 to 47 °C
69 | COc1cccc(C(C[N+](=O)[O-])c2c[nH]c3ccccc23)c1 (stereo unspecified) | 93 to 95 °C
70 | CN(Cc1nn[nH]n1)C(=O)c1ccccc1 | 136 to 138 °C
71 | CC(C)(C)OC(=O)N1CCN(C(N)=O)CC1 | 175 to 177 °C
72 | O=C(O)CCCc1nc2ccccc2s1 | 148 to 150 °C
73 | Nc1nc2c3c(ccc2s1)CCCC3 | 122 to 124 °C
74 | CCCc1ccc(C(=O)CCl)cc1 | 30 to 32 °C
75 | O=C(O)C1C2C3CCC(C3)C12 (stereo unspecified) | 96 to 98 °C
76 | O=c1[nH]c(-c2cnccn2)no1 | 232 to 234 °C

Row | SMILES | melting point
77 | NNC(=O)c1ccc2c(=O)n3c(nc2c1)CCC3 | 268 to 270 °C
78 | O=Cc1cccc(NC(=O)c2ccc(Cl)cc2)c1 | 129 to 131 °C
79 | O=C(O)C1CCCCC1C(=O)N1CCc2ccccc21 (stereo unspecified) | 123 to 125 °C
80 | CCc1cc2c(=O)n(N)cnc2s1 | 137 to 139 °C
81 | Nc1cccc(N2CCS(=O)(=O)CC2)c1 | 151 to 153 °C
82 | COc1ccc(S(=O)(=O)Nc2ccccc2Cl)cc1N | 93 to 95 °C
83 | Cc1ccc(-c2cnc(CCl)o2)cc1 | 58 to 60 °C
84 | O=C(O)C1CCCCN1C(=O)C1CCCC1 (stereo unspecified) | 121 to 123 °C
85 | Nc1nc(S)nc2sccc12 | 275 to 277 °C
86 | NCc1ccc(NC(=O)CCCOc2ccccc2)cc1 | 96 to 98 °C
87 | Cc1cccc2[nH]cc(CCN)c12 | 108 to 110 °C
88 | CN(c1ccc(O)cc1)S(=O)(=O)c1ccc(F)cc1 | 152 to 154 °C
89 | N#CCC(=O)N1CCN(c2ccccc2)CC1 | 132 to 134 °C
90 | COCc1nc(Cl)cc(Cl)n1 | 43 to 45 °C
91 | Brc1cnn(-c2cccnc2)c1 | 126 to 128 °C
92 | Nc1cc(C(=O)Nc2ccccc2)ccc1Cl | 199 to 201 °C
93 | CCOC(=O)COc1ccc(Cl)c2cccnc12 | 113 to 115 °C
94 | O=c1ccc(S(=O)(=O)N2CCCCC2)c[nH]1 | 239 to 241 °C
95 | NCc1cc2sccc2s1 | 58 to 60 °C
96 | CC(C)n1cnnc1S | 116 to 118 °C
97 | NC(=S)Cc1ccccc1 | 84 to 86 °C
98 | NC(=O)NN=Cc1ccccc1O | 232 to 234 °C
99 | Nc1ccc(CN2CCOCC2)cn1 | 119 to 121 °C
100 | NC(=O)Nc1cccc2ccccc12 | 284 to 286 °C

Row | SMILES | melting point
101 | CC(C)(C)c1ncccc1O | 159 to 161 °C
102 | CC(=O)NCCNC(=O)CCC(=O)O | 166 to 168 °C
103 | O=C(O)CC(NC(=O)OCc1ccccc1)c1ccccc1 (stereo unspecified) | 124 to 126 °C
104 | CC1(c2ccc(C(N)=O)cc2)NC(=O)NC1=O (stereo unspecified) | 163 to 165 °C
105 | COc1ccc2cc(N)ccc2n1 | 101 to 103 °C
106 | Nc1cc(Cl)cc(Br)c1OC(F)F | 86 to 88 °C
107 | O=[N+]([O-])c1ccc(OC2CCNCC2)cc1 | 97 to 99 °C
108 | Fc1ccc(F)c2c(Cl)ccnc12 | 154 to 156 °C
109 | Oc1ncncc1Br | 193 to 195 °C
110 | CC(C)NC(=O)CN(C)CC(N)=S | 140 to 142 °C
111 | Cn1c(C=O)nc2c1c(=O)[nH]c(=O)n2C | 284 to 286 °C
112 | Cc1cc(O)nc(C(C)Cl)n1 (stereo unspecified) | 132 to 134 °C
113 | CCOCCN1C(=O)C(=O)c2ccccc21 | 65 to 67 °C
114 | C=CC(=O)NC(N)=O | 169 to 171 °C
115 | COC(=O)c1cccc(NC(=O)CC(C)=O)c1 | 75 to 77 °C
116 | CON(C)S(=O)(=O)c1cc(N)ccc1Cl | 88 to 90 °C
117 | O=[N+]([O-])c1ccccc1S(=O)(=O)N1CCNCC1 | 147 to 149 °C
118 | CCOC(=O)c1c(NC(=O)CCl)sc(C)c1CC | 97 to 99 °C
119 | CCOC(=O)c1sc(-c2cccc([N+](=O)[O-])c2)cc1N | 166 to 168 °C
120 | N#Cc1ccc(Oc2cccc(N)c2)cc1 | 86 to 88 °C
121 | O=c1cc(CCl)occ1O | 166 to 168 °C
122 | CCOC(=O)c1sc2nc(CCl)[nH]c(=O)c2c1C | 190 to 192 °C
123 | Cc1ccc2c(CC#N)c[nH]c2c1 | 115 to 117 °C
124 | Cc1[nH]c2ncnn2c(=O)c1CCO | 267 to 269 °C

Row | SMILES | melting point
125 | CS(=O)(=O)CCC1NC(=O)NC1=O (stereo unspecified) | 160 to 162 °C
126 | CC(C)(C)OC(=O)N1CCC(OS(C)(=O)=O)CC1 | 84 to 86 °C
127 | NNc1c([N+](=O)[O-])cc(C(F)(F)F)cc1[N+](=O)[O-] | 129 to 131 °C
128 | O=C(c1ccc(Br)cc1)N1CCNCC1 | 79 to 81 °C
129 | CCc1c(Cl)nc(-c2ccccc2)nc1Cl | 73 to 75 °C
130 | N#Cc1ccc(CC(N)=O)cc1 | 191 to 193 °C
131 | Cc1cc(C#N)ccc1NC1CCC(O)CC1 (stereo unspecified) | 119 to 121 °C
132 | CCC(CC)c1nnc(N)s1 | 158 to 160 °C
133 | CCOc1nc(Cl)ncc1Br | 72 to 74 °C
134 | NS(=O)(=O)c1cc(C(F)(F)F)ccc1F | 127 to 129 °C
135 | Nc1ncn(-c2ccccc2)n1 | 146 to 148 °C
136 | Nc1nnc(-c2ccccc2)o1 | 243 to 245 °C
137 | N=C(NN)c1cc(Cl)ccn1 | 248 to 250 °C
138 | Cn1cnnc1-c1ccccc1N | 133 to 135 °C
139 | O=C(Nc1ccccc1F)C1CCc2ccccc2N1 (stereo unspecified) | 96 to 98 °C
140 | Nc1ccc(N)c(S(=O)(=O)Nc2ccccc2Cl)c1 | 213 to 215 °C
141 | C=CCNC(=O)c1ccccc1N | 92 to 94 °C
142 | CC(Cl)C(=O)Nc1ccc2c(c1)OC1(CCCCC1)O2 (stereo unspecified) | 98 to 100 °C
143 | O=C(NC(Cc1ccccc1)C(=O)O)c1cccs1 (stereo unspecified) | 202 to 204 °C
144 | COc1ccc(-c2cc(N)on2)c(OC)c1OC | 161 to 163 °C
145 | CN(C)Cc1cccc(NC(=O)c2nonc2N)c1 | 142 to 144 °C
146 | CC1(C)CC(=O)c2ccccc2O1 | 87 to 89 °C
